# Legend:
# Assay type in all cases: cell-based, rat
# [1] = system: myoblasts isolated from the WT EOMs; assay: Myogenic differentiation (MF20 staining, fusion index) of EOM myoblasts; settings: 10 μM, 7 days, vs DMSO
# Protocol: For this, the cells were fixed with 4% PFA for 10 minutes at 4° C. and permeabilized with 0.5% Triton in 1×PBS for 6 minutes. After blocking with 10% BSA for 30 minutes at room temperature, the cells were incubated O/N at 4° C. with the following primary antibodies: Pax7 (Santa Cruz Biotechnology, sc-81648), MyoD (Dako, clone 5.8A, M3512), ki67 (Abcam, sp6 ab16667), sarcomeric myosin heavy chain (MF20, DSHB, AB_2147781).
# The cell suspension was passed through cell filters and centrifuged at 600 g/minute for 5 minutes, at 4° C. The supernatant was removed and the cell pellet was resuspended in 20% fetal bovine serum (Cat #S1810-500 Dominique Dutscher) in DMEM (Cat #41966-029 Gibco) supplemented by 25 ng/mL of bFGF (RP4037, Sigma-Aldrich) with […] of penicillin/streptomycin (354234, Life Sciences) covered with matrigel (Sarstedt, #94.6140.802). The cells were grown for 48 hours to evaluate the proliferation. After 48 h of proliferation, the cells were cultured for 5 days in 5% fetal bovine serum to induce differentiation.
# (§1) For this, the myoblasts derived from MSC were treated with 10 μM of ML224 (HY12381-S, CliniSciences) for 2 days (proliferation) or 7 days (differentiation) or 20 μM of forskolin (F3917, Sigma-Aldrich) (following experiment) only for 48 h. The control cells were treated with DMSO (D8418, Sigma Aldrich) as a vehicle for ML224 and forskolin.
# [2] = system: Cdkn1a (p21) and Cdkn2a (p16) expression in EOM-derived myoblasts; assay: qPCR of senescence markers in EOM-derived myoblasts; settings: EOM satellite cells in culture, 10 μM, vs DMSO
# Protocol: The absence of Cdkn1a and Cdkn2a transcripts is also validated as well as the specific expression of TSHR on muscle satellite cells freshly isolated from EOMs by qRT-PCR (FIG. 6D): The RNA is extracted using the total RNA isolation kit RNAqueous-Micro (Invitrogen) and back-transcribed using SuperScript™ III reverse transcriptase (Invitrogen, 18080093) according to the manufacturer's instructions.
# The qPCR is carried out using the StepOnePlus real-time PCR system (Applied Biosystems) and SYBR Green detection tools (Applied Biosystems).
# The results are reported as relative gene expression (2-DDCT) using the vehicle-treated cells or the extra-ocular derived myoblasts as a reference. Gene expression is normalized on the expression levels of β-actin.
# as §1
# [3] = system: myoblasts isolated from the WT EOMs; assay: EdU proliferation of EOM-derived myoblasts treated with TSHR antagonist; settings: 10 μM, 2 days, serum-free, EdU pulse 24 h, vs DMSO
# Protocol: To evaluate the functional importance of the expression of TSHR in the MSCs of the EOMs, the myoblasts were isolated from the WT EOMs and treated with a selective antagonist of the TSH receptor, ML224 (Neumann et al., 2014).
# as §1
# The proliferation was measured after 24 h of culture by adding to the culture medium a pulse of […] of 5-ethynyl-20-deoxyuridine (EdU) for 24 h (EdU Click-iT PLUS Kit C10640, Life Technologies).
# This experiment is carried out under serum-free conditions in order to prevent any stimulation of TSHR by the presence of TSH in the serum, which explains the lowest proliferative capacity of the myoblasts of the EOMs treated with the vehicle, relative to the data presented above (FIG. 3I).
compound,measurement,setting,value
COc1ccc(C2Nc3ccccc3C(=O)N2Cc2ccco2)cc1COc1c(C)cc(NC(C)=O)cc1C (centres unmarked) [ML224],Differentiation / formation of myotubes,[1],differentiation defects
same,Fusion index compared to vehicle control,[1],significant reduction
same,Expression of Cdkn1a (p21),[2],induced the expression
same,Expression of Cdkn2a (p16),[2],induced the expression
same,Proliferative myoblasts (Pax7+/MyoD+/EdU+ cells) relative to vehicle,[3],significant decrease

# Reference: patent US20240343779A1, “PHARMACOLOGICAL AND/OR GENETIC ACTIVATOR FOR USE IN PRESERVING AND REGENERATING MUSCLE STRUCTURE AND FUNCTION BY BLOCKING SENESCENCE” (ASSOCIATION FRANCAISE CONTRE LES MYOPATHIES, priority 2021, published 2024)
